Assay: wn = mass fraction of the nth substance listed
Conditions: Liquid; for mass density: Vibrating tube method; for viscosity: Falling or rolling sphere viscometry

CN(C)CCO [2-(N,N-dimethylamino)ethanol] + O
Conditions | mass density, w1 = 0.1005 [kg/m3] | mass density, w1 = 0.202 [kg/m3] | mass density, w1 = 0.3005 [kg/m3] | mass density, w1 = 0.3995 [kg/m3] | viscosity, w1 = 0.1005 [mPa·s] | viscosity, w1 = 0.202 [mPa·s] | viscosity, w1 = 0.3005 [mPa·s] | viscosity, w1 = 0.3995 [mPa·s]
353.15 K, 60000 kPa | – | – | 975.6 | 967.5 | – | – | – | –
353.15 K, 70000 kPa | 993.6 | 986.6 | 979.3 | 971.2 | – | – | – | –
353.15 K, 80000 kPa | 997.4 | 990.1 | 983 | 975.1 | 0.4999 | 0.6779 | 0.9395 | 1.281
353.15 K, 90000 kPa | 1000.9 | 993.8 | 986.6 | 978.7 | – | – | – | –
353.15 K, 100000 kPa | 1004.6 | 997.3 | 990.1 | 982.4 | 0.5096 | 0.6942 | 0.9726 | 1.337
353.15 K, 110000 kPa | 1008.1 | 1000.7 | 993.6 | 985.9 | – | – | – | –
353.15 K, 120000 kPa | 1011.7 | 1004.1 | 997 | 989.3 | – | – | – | –
353.15 K, 130000 kPa | 1014.9 | 1007.5 | 1000.3 | 992.7 | – | – | – | –
353.15 K, 140000 kPa | 1018.3 | 1010.8 | 1003.5 | 996 | – | – | – | –
373.15 K, 100 kPa | 950.7 | 942.4 | 933.3 | 923.1 | – | – | – | –
373.15 K, 500 kPa | 950.9 | 942.7 | 933.6 | 923.4 | – | – | – | –
373.15 K, 1000 kPa | 951.2 | 942.9 | 933.9 | 923.6 | – | – | – | –
373.15 K, 2000 kPa | 951.7 | 943.4 | 934.4 | 924.2 | – | – | – | –
373.15 K, 5000 kPa | 953 | 944.8 | 935.9 | 925.8 | 0.359 | 0.4516 | 0.5788 | 0.7177
373.15 K, 10000 kPa | 955.4 | 947.2 | 938.4 | 928.4 | 0.3614 | 0.4543 | 0.5834 | 0.7267
373.15 K, 15000 kPa | 957.7 | 949.5 | 940.8 | 931.1 | 0.3638 | 0.4578 | 0.5895 | 0.7398
373.15 K, 20000 kPa | 959.9 | 951.8 | 943.2 | 933.6 | 0.3659 | 0.4624 | 0.5971 | 0.7525
373.15 K, 25000 kPa | – | – | – | – | 0.3691 | 0.4659 | 0.602 | 0.7633
